Experimental data from PubChem BioAssay AID2305 (GlaxoSmithKline (GSK), 2010).

system: P. falciparum 3D7 growth, pLDH absorbance; assay: P. falciparum 3D7 growth inhibition, dose response, strain 3D7 (AID 2305)

Structure (SMILES)	IC50
c1ccc(COc2ccc(Nc3ncnc4cnc(-c5ccc(CN6CCCCC6)o5)cc34)cc2)cc1	970 nM
Cc1cccc(NC(=O)c2cnc(N3CCN(c4ccncc4)CC3)c(Cl)c2)c1	680 nM
CCc1c(CCNCCCCCCNC(C)Cc2ccc3c(c2CC)OCO3)ccc(OC)c1OC (centres undefined)	870 nM
Cc1ccc(Nc2ccnc(Nc3ccc(C)c(F)c3)n2)cc1O	760 nM
Cc1cccc2[nH]c(-c3cccc(-c4ccc(C(=O)NCCc5ccc(O)c(=O)[nH]5)cc4)c3)nc12	1190 nM
CCOC(=O)C1=C(C)NC(C)=C(C(=O)OCC)C1(C(=O)OCc1ccccc1)c1cccc(C(F)(F)F)c1	1230 nM
O=C(Nc1ccc(Cl)cc1)Nc1cccc(-c2cccc(-c3nc4ccc(F)cc4[nH]3)c2)c1	220 nM
O=C(Nc1ccc(-c2ccc(CN3CCNCC3)cc2)cc1)c1cccc(Cl)c1	890 nM
O=C(NCc1cccc(C(F)(F)F)c1)[C@@H]1CCCN1C(=O)c1ccc(O)c(-c2ccc(Cl)c(Cl)c2)c1	790 nM
CC(c1cccc(Nc2nccc(-c3c(-c4cccc(NC(=O)c5c(F)cccc5F)c4)nn4ccccc34)n2)c1)S(C)(=O)=O (centres undefined)	60 nM
CCNC(=O)Nc1ccc(-c2cccc(-c3nc4c(C)cccc4[nH]3)c2)cc1	760 nM
Cc1ccccc1C1CCN(C2CCC(NC(=O)/C=C/c3ccc(F)c(F)c3)CC2)CC1 (centres undefined)	950 nM
COC(=O)C1(NC(=O)c2ccc(-n3nc(C)c(-c4ccccc4)c3N)cc2)CCCC1	370 nM
N=C(N)c1cc(Br)cc(NC(=O)Nc2cc(Br)cc(C(=N)N)c2)c1	820 nM
O=C(Nc1cccc(-c2ccc(-c3nc4ccc(F)cc4[nH]3)s2)c1)c1ccncc1	700 nM
COc1ccc(NC(=O)c2ccc(Br)c(C)c2)cc1N1CCN(CCCCc2ccccc2)CC1	820 nM
COc1ccc2nc(C)cc(NC3Cc4ccccc4C3)c2c1	840 nM
O=C(NC(=O)c1ccccc1O)c1ccccc1O	700 nM
COc1cc2nc(NCCCN3CCCCC3)nc(NCc3ccccc3)c2cc1OC	1000 nM
NS(=O)(=O)c1cncc(-c2ccc3nccc(-c4cn[nH]c4)c3n2)c1	530 nM
Cc1cc(NC(=O)NCCN2CCC(NS(=O)(=O)c3ccc(Br)cc3)C2)c2ccccc2n1 (centres undefined)	600 nM
Cc1cc(NN=Cc2ccc(F)cc2)c2ccc(F)cc2n1	950 nM
Oc1ccc(CCNCCCCCCNCCc2ccc(Cl)c(Cl)c2)cc1O	730 nM
Cc1ccc(Cn2cnc(N3CC(C)NC(C)C3)cc2=O)cc1NC(=O)Nc1ccc(-c2ccccc2)cc1 (centres undefined)	850 nM
O=C(NCCN1CCCC1)c1cccc(-c2ccc(-c3nc4ccccc4[nH]3)cc2)c1	920 nM

Structure (SMILES)	IC50
Fc1ccc(NC(=S)NCCc2ccccc2)cc1	780 nM
Cc1ccc(Cl)cc1NC(=O)c1c(-c2ccccc2Cl)noc1C	190 nM
O=c1[nH]c2c(c(O)c1[N+](=O)[O-])CCC2	1050 nM
CC(C)Sc1nncc(-c2cnnc(SC(C)C)n2)n1	140 nM
NCc1cccc(-c2ccc(CNC3CCN(Cc4ccccc4)CC3)cc2)c1	1700 nM
CC(=NNC(=S)Nc1ccccc1Cl)c1ccccn1	80 nM
Nc1ncc(-c2ccc3[nH]ccc3c2)c2ccc(-c3ccncc3)cc12	540 nM
COc1cccc(C(=O)[C@H]2C[C@@H]2CN(C)CCC(O)c2ccc(Cl)c(Cl)c2)c1 (some centres undefined)	760 nM
COc1ccc(NC(=O)c2ccc(-c3nc(-c4cccc(C(F)(F)F)c4)cs3)cc2)cc1N1CCN(C)CC1	820 nM
c1ccc(Oc2ccc(Nc3ccnc(Nc4ccc(CN5CCOCC5)cc4)n3)cc2)cc1	940 nM
CC(CNc1ccnc(Nc2ccc3[nH]c(=O)[nH]c3c2)n1)c1ccccc1 (centres undefined)	700 nM
O=C(Nc1ccc(OC2CCN(Cc3ccc(F)cc3)CC2)c(Cl)c1)c1ccoc1	1180 nM
Cc1ccc2nc(-c3ccccc3Nc3ccnc4cc(-c5nccs5)ccc34)[nH]c2c1	190 nM
Cc1ccc(N)cc1-c1nc(NC2CC(C)(C)NC(C)(C)C2)nc2c1ccc(=O)n2-c1c(F)cccc1F	840 nM
COc1ccc(CN2CCCN(Cc3cccc(NC(=O)c4ccc(Cl)c(Cl)c4)c3)CC2)cc1	970 nM
CC(C)CCN1CCC(Oc2ccc(NC(=O)c3ccc4ncccc4c3)cc2Cl)C1 (centres undefined)	970 nM
CC(C)C[C@@H](/C=N/N1CCOC1=O)NC(=O)[C@H](CC(C)C)NC(=O)c1ccc(F)cc1	1170 nM
Cc1ccc(-c2ccc(NC(=O)N3CCc4cc(Br)c(N5CCN(C)CC5)cc43)cc2)cn1	1350 nM
COCCOc1nc(N)nc2ncc(Cc3cc(OC)ccc3OC)c(C)c12	430 nM
O=C(NCCc1ccccc1)N(Cc1ccccc1-c1ccc(CNC2CCCC2)cc1)C1CCN(Cc2ccccc2)CC1	1130 nM
CN(C)Cc1ccc(-c2ccc3c(Nc4ccc(Cl)cc4F)ccnc3c2)o1	240 nM
c1ccc(CN2CCC(NCc3ccc(-c4ccc(CNC5CCCC5)cc4)cc3)CC2)cc1	290 nM
FC(F)(F)c1ccc2nc(-c3ccc(-c4ccc(CN5CCN(c6ccncc6)CC5)cc4)s3)[nH]c2c1	150 nM
O=[N+]([O-])c1ccc(C2=NN(S(=O)(=O)c3c(Cl)cc(Cl)cc3Cl)CCCC2)cc1	130 nM
CCc1ccc(NC(=O)c2ccc(CN3CCCN(CCC(C)C)CC3)cc2)cc1	630 nM

Structure (SMILES)	IC50
COc1ccc2nccc(NC(=O)C3(O)CCC(NCc4ncc5c(c4Cl)OCCO5)CC3)c2n1 (centres undefined)	250 nM
Oc1ccc(CCNCCCCCCNCCc2ccc(-c3ccccc3)cc2)cc1O	600 nM
COc1cc(OC)cc(-c2nn(-c3ccc([N+](=O)[O-])cc3C#N)c(=S)n2CC2CCCO2)c1 (centres undefined)	850 nM
O=C1C2C(C(=O)N1c1ccccc1)[C@H]1S[C@@H]2c2c1ccc1ccccc21 (some centres undefined)	770 nM
CCCCCCCN1CC[C@@H](CCCc2ccnc3ccc(OC)cc23)[C@@H](CNC)C1	210 nM
Cc1nc(-c2ccc(C(F)(F)F)cn2)sc1C(=O)N1CCc2cc3nccc(N4CCN5CCC[C@H]5C4)c3cc21	780 nM
CO/C(=C\C=C\c1cc2cc(Cl)c(Cl)cc2[nH]1)C(=O)NCCCCN1CCN(c2ccccc2OC)CC1	510 nM
NC(=O)c1cccc(C(=O)Nc2cccc(-c3ccc(-c4nc5ccccc5[nH]4)s3)c2)c1	350 nM
COc1cccc2cc(C(=O)N[C@@H](CC(C)C)C(=O)N[C@H](/C=N/N(C)C(=O)OC(C)(C)C)CC(=O)OC(C)(C)C)oc12	650 nM
Cc1cc(OCCCN2CCC(NS(=O)(=O)c3cc(Br)c(Cl)s3)CC2)c2ccccc2n1	850 nM
Cc1cccc(C(=O)Nc2ccnc(N3CCCN(Cc4cccc(O)c4)CC3)c2)c1	1210 nM
c1cc(CN2CCCCC2)cc(OCCCNc2ccnc3ccccc23)c1	430 nM
O=C(Nc1cccc(-c2csc(-c3ccccc3)n2)c1)c1cccs1	800 nM
O=C(Nc1cccc(CN2CCCN(Cc3ncc[nH]3)CC2)c1)c1ccc2ccccc2c1	630 nM
CCC(=O)c1cc(C(=O)NCCc2cccc(OC)c2)ccc1OC	900 nM
COc1ccc(NC(=O)Nc2cccc(-c3ccc(-c4nc5ccc(C(F)(F)F)cc5[nH]4)cc3)c2)cc1	450 nM
CCN(CC)CCN(Cc1ccc(-c2ccc(C(F)(F)F)cc2)cc1)C(=O)Cn1c(CCc2c(F)ccc(F)c2F)nc(=O)c2ccccc21	240 nM
Cc1nc(N)nc(N)c1OCc1cccc2ccccc12	70 nM
CCN(CCCN1CCCCC1)c1cc(C)nc(Nc2ccc(C)c(Cl)c2)n1	210 nM
O=C(/C=C/c1ccc(Cl)c(Cl)c1)NCCCCCN1CCCC(C(=O)Nc2ccc(Cl)c(Cl)c2)C1 (centres undefined)	780 nM
CC(C)CNCc1cccc(-c2ccc(CNc3ccc4ncccc4c3)cc2)c1	1060 nM
CC(C)c1ccc(N(CC(=O)N/N=C/c2ccc(C(F)(F)F)cc2)S(=O)(=O)c2ccc(C(F)(F)F)cc2)cc1	850 nM
CN1CCN(c2ccnc3ccc(NC(=O)Cc4cccc(Cl)c4Cl)cc23)CC1	790 nM
COc1ccc(-c2cccc(NC(=O)c3ccc(Cl)cc3)c2)cc1CN(C)CCN(C)C	780 nM
CCN(CCCN1CCCCC1)c1cc(C)nc(Nc2ccc(C)cc2Br)n1	170 nM

Structure (SMILES)	IC50
CCN1CCN(CCCCNc2c3ccccc3nc3ccccc23)CC1	860 nM
O=C(/C=C/c1ccc(Cl)cc1)NCCCCCN1CCC(C(=O)Nc2ccc(Cl)cc2)CC1	830 nM
Cc1cc(F)ccc1-c1nc(Nc2ccncc2)c2ccn(C)c2n1	940 nM
CC[C@H]1CN2CC[C@H]1C[C@H]2[C@H](O)c1cc(-c2ccccc2C)nc2ccc(OC)cc12	200 nM
COc1cc2c(cc1OCCN1CCC(N3CCCCC3)CC1)N(C(=O)/C=C/c1ccccc1OC(F)(F)F)CC2	590 nM
O=C(Nc1ccc(-c2cccc(-c3nc4ccc(C(F)(F)F)cc4[nH]3)c2)cc1)c1ccc(=O)[nH]n1	1070 nM
OCCN1CCN(c2nc(Nc3cccc(F)c3)c3cnn(-c4ccccc4)c3n2)CC1	830 nM
CCN(c1cc(C)nc(Nc2ccc(Cl)cc2)n1)[C@H]1CCN(Cc2ccccc2)C1	860 nM
COc1cccc(CN2CCC3(CC2)CN(C(=O)Nc2ccc(Cl)c(Cl)c2)C3)c1	750 nM
FC(F)(F)c1ccc(NC(=S)N2CCC(CN3CCC(c4c[nH]c5ccccc45)CC3)CC2)cc1	660 nM
CNC(=O)c1ccccc1Nc1nc(Nc2cccnc2)ncc1C	100 nM
O=C(Nc1cccc(-c2ccc(-c3nc4ccc(F)cc4[nH]3)cc2)c1)c1ccoc1	960 nM
COc1cc2nc(N(C)C)nc(Nc3ccc(OCc4ccccc4)cc3)c2cc1OC	70 nM
COc1ccc(Nc2nc(NCc3cccnc3)cc(-c3ccc(OC)cc3)n2)cc1	1400 nM
CCOc1cc(C(=O)N[C@@H](Cc2ccccc2)[C@H](O)CNCc2cccc(OC)c2)cc(N2CCCCS2(=O)=O)c1	720 nM
O=C(Nc1cccc(-c2cccc(-c3nc4ccccc4[nH]3)c2)c1)c1ccoc1	740 nM
CNC(=O)c1cc(S(=O)(=O)Nc2ccc(OC)cc2)cs1	1130 nM
CCNc1cc(C(=O)N[C@@H](Cc2ccccc2)[C@H](O)CNC(C)CCCC(C)C)cc(N2CCCS2(=O)=O)c1 (some centres undefined)	220 nM
Cc1c(Cc2ccc(C(C)C)cc2)cnc2nc(N)nc(N)c12	300 nM
CCOC(=O)C(=CNc1ccc(Cc2cnc(N)nc2N)cc1CC)C(=O)OCC	1140 nM
O=C(Nc1cccc(OC2CCN(Cc3ccsc3)CC2)c1)c1ccc(C(F)(F)F)cc1	770 nM
Cn1nc(C(F)(F)F)c(-c2ccc(Br)cc2)c1NC(=O)Cc1ccccc1F	160 nM
CCCCc1cc(NC2CCN(C)CC2)nc(Nc2ccccc2)n1	660 nM
CN1CCC[C@@H](Oc2cc3c(cc2Br)CCN3C(=O)Nc2ccc(-c3ccncc3)c(Cl)c2)C1	620 nM
